12 molecules from ChEMBL document CHEMBL1141318, “Cytotoxic lignans from the stem bark of Magnolia officinalis” (J Nat Prod, 2007) can be followed below.

Assay type in all cases: functional, cell-based
One experiment relates to K562. Briefly: Cytotoxicity against human K562 cells by MTT assay. (In general: Tetrazolium assays rely on reduction of a dye to a coloured formazan, in cell work by metabolically active cells.)
For another experiment, the system named is HeLa. Briefly: Cytotoxicity against human HeLa cells by MTT assay.
In a further experiment the test system is A549. Briefly: Cytotoxicity against human A549 cells by MTT assay.

In general, IC50 refers to the concentration needed to halve the response being measured.

In brackets after ≈: the same amount, converted by molar mass. A value given as a limit tells only on which side of the number the result lay.

Consider `C=CCc1ccc(O)c(-c2cc(CC=C)ccc2O)c1` [MAGNOLOL], for which the IC50 in the experiment with K562, in the experiment on HeLa and in the experiment on A549 was over 5 µg/mL each time.

In the case of `COc1ccc(-c2cc(/C=C/C=O)ccc2O)cc1/C=C/C=O`, the results for the IC50 in the experiment on K562, in the experiment with HeLa and in the experiment on A549 were 3.7 µg/mL (≈ 12 µM), 3.9 µg/mL (≈ 12.6 µM) and 1.5 µg/mL (≈ 4.86 µM), respectively.

As to `C=CCc1cc(-c2cc(C=O)ccc2O)ccc1O` [MAGNALEDEHYDE E], the IC50 in the experiment with K562, in the experiment on HeLa and with A549 was over 5 µg/mL each time.

Take `C=CCc1cc(-c2cc(/C=C/C=O)ccc2O)ccc1O` [MAGNALEDEHYDE B]: the IC50 in the experiment on K562, in the experiment with HeLa and with A549 was over 5 µg/mL in each case.

On to `C=CCc1cc(-c2cc(CC(O)CO)ccc2O)ccc1O` (stereo unspecified) [MAGNOLIGNAN], for which the IC50 with K562, with HeLa and in the experiment with A549 was over 5 µg/mL throughout.

In the case of `C=CCc1ccc(O)c(-c2ccc(OC)c(CC=C)c2)c1` [METHYLHONOKIOL], the IC50 in the experiment on K562, in the experiment on HeLa and in the experiment on A549 was over 5 µg/mL throughout.

Regarding `COc1cccc2c1C(=O)c1c(O)c3c(c(O)c1C2=O)C[C@@](O)(C(=O)CO)C[C@@H]3O[C@H]1C[C@H](N)[C@H](O)[C@H](C)O1` [DOXORUBICIN], the results for the IC50 with K562, in the experiment on HeLa and in the experiment on A549 were 1.41 µg/mL (≈ 2.59 µM), 0.8 µg/mL (≈ 1.47 µM) and 1.2 µg/mL (≈ 2.21 µM), respectively.

On to `C=CCc1ccc(O)c(-c2ccc(O)c(CC=C)c2)c1` [HONOKIOL], for which the IC50 with K562, in the experiment with HeLa and in the experiment with A549 was over 5 µg/mL in each case.

As for `COc1cc(/C=C/CO)cc(OC)c1O[C@@H]1O[C@H](CO)[C@@H](O)[C@H](O)[C@H]1O` [SYRINGIN], the IC50 in the experiment with K562, in the experiment on HeLa and in the experiment on A549 was over 5 µg/mL each time.

Take `C=CCc1cc(-c2cc(C=O)ccc2O)ccc1OC`: the IC50 in the experiment on K562, with HeLa and in the experiment with A549 was over 5 µg/mL throughout.

For `C=CCc1cc(-c2cc(/C=C/C=O)ccc2O)ccc1OC` [4'-METHOXYMAGNALEDEHYDE B], the IC50 with K562, in the experiment with HeLa and with A549 was over 5 µg/mL in each case.

As for `COc1cc(/C=C/C=O)cc(OC)c1O[C@@H]1O[C@H](CO)[C@@H](O)[C@H](O)[C@H]1O` [SINAPALDEHYDE GLUCOSIDE], the IC50 in the experiment with K562, in the experiment with HeLa and in the experiment on A549 was over 5 µg/mL throughout.
